Each structure is given as a SMILES string.

This assay addresses T1, RORγ-LBD (Homo sapiens, UniProt P51449).
T1 construct: HIS-tagged RORγ-LBD was recombinantly expressed in SF9 cells; made in house; host or cells: SF9 cells (baculovirus); unpurified lysate
T1 sequence (P51449 269-508 limits assumed): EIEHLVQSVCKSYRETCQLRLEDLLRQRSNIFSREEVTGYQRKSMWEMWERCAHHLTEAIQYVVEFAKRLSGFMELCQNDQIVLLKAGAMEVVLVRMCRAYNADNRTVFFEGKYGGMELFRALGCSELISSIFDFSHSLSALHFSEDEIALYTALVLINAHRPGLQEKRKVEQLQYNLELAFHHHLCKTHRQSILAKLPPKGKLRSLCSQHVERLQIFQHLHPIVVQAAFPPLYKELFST
Put plainly: RORγ-Ligand Binding Domain TR-FRET Assay. Type of assay: biochemical. As to the method: HIS-tagged RORγ-LBD was recombinantly expressed in SF9 cells using a baculovirus expression system. The protein was not purified. Cells were lysed and the lysate was used as a source for RORγ-LBD for the assay. A 1:80 dilution of RORγ-LBD lysate in assay buffer (25 mM HEPES pH 7.0, 100 mM NaCl, 0.01% Tween, 0.1% BSA) was prepared and 5 μL was added to each well (RORγ-LBD final concentration ˜10 nM). Control wells received lysate from SF9 cells not expressing RORγ-LBD.
Compounds to be tested were diluted to 100× final test concentration in DMSO and further diluted to 4× final test concentration using assay buffer to provide the test compound mixture. An aliquot (5 μL) of the test compound mixture was added to each well.
A 4× stock of biotinylated-LXXLL peptide from SRC1-2 (Biotin-[…]) was prepared in assay buffer and a 5 μL aliquot added to each well (450 nM final concentration). A 4× solution of europium tagged anti-HIS antibody (2 nM final concentration) and APC conjugated streptavidin (60 nM final concentration) were prepared and a 5 μL aliquot added to each well.
The final assay mixture was incubated for 4 hours to overnight, and the fluorescence signal was measured on an Envision plate reader: (Excitation filter=340 nm; APC emission=665 nm; Europium emission=615 nm; dichroic mirror=D400/D630; delay time=100 μs, integration time=200 μs).
IC50 values for test compounds were calculated from the quotient of the fluorescence signal at 665 nm divided by the fluorescence signal at 615 nm using GraphPad Prism software.
On the technique in general: TR-FRET usually uses a lanthanide donor and a delayed reading to cut background.

The term IC50 denotes the midpoint of a concentration-inhibition curve. A low value points to higher potency. On to `CC(=O)Nc1ccc(S(=O)(=O)n2ncc3ccc(NC(=O)c4c(F)cccc4Cl)cc32)cc1Cl` [Compound V-149], for which the IC50 (Table 8, indazoles) was less than 15 µM.

On to `O=C(Cc1ccc(Cl)cc1)Nc1ccc2c(c1)N(S(=O)(=O)c1ccc(Cl)cc1)C[C@H](CO)O2` [VI-66], for which the IC50 (benzoxazines, Table 9) was less than 15 µM.

Turning to `O=C(Cc1ccc(Cl)cc1)Nc1ccc2c(c1)N(S(=O)(=O)c1ccc(Cl)cc1)C[C@@H](CO)O2` [VI-50], for the setting “benzoxazines, Table 9”, the IC50 is less than 15 µM.

For the setting “benzoxazines, Table 9”, `C[C@H]1CN(S(=O)(=O)c2cccc(C#N)c2)c2cc(NC(=O)c3c(F)cccc3F)ccc2O1` [VI-2] registered an IC50 of less than 15 µM.

With `Cc1ccccc1CS(=O)(=O)n1ncc2ccc(NC(=O)c3c(F)cccc3Cl)cc21` [Compound V-119], under “Table 8, indazoles”, the IC50 was less than 15 µM.

Take `O=C(Cc1ccc(Cl)cc1)Nc1ccc2cnn(S(=O)(=O)c3cccc(OC(F)F)c3)c2c1` [Compound V-29]: the IC50 (Table 8, indazoles) is less than 15 µM.

Under “Table 8, indazoles”, `O=C(Nc1ccc2cnn(S(=O)(=O)c3cc(F)cc(F)c3)c2c1)c1c(F)cccc1Cl` [Compound V-114] gave an IC50 of less than 15 µM.

`O=C(Nc1ccc2cnn(S(=O)(=O)c3ccccc3)c2c1)c1c(F)cccc1Cl` [Compound V-159]: the IC50 (Table 8, indazoles) is less than 15 µM.

As to `O=C(Nc1ccc2c(C(O)CO)nn(S(=O)(=O)c3cccc(C(F)(F)F)c3)c2c1)c1c(F)cccc1Cl` (stereo not shown) [Compound 10, 2-Chloro-N-[3-(1,2-dihydroxyethyl)-1-(3-trifluoromethylbenzenesulfonyl)-1H-indazol-6-yl]-6-fluorobenzamide], for the setting “Table 8, indazoles”, the IC50 is less than 15 µM.

Regarding `C[C@H]1CN(S(=O)(=O)c2ccc(F)cc2)c2cc(NC(=O)Cc3ccncc3)ccc2O1` [VI-130], where the note is “benzoxazines, Table 9”, the IC50 was less than 15 µM.

Compound `O=C(Nc1ccc2cnn(S(=O)(=O)c3cc(Cl)c(Cl)s3)c2c1)c1c(F)cccc1Cl` [Compound V-97] yielded an IC50 (Table 8, indazoles) of less than 15 µM.

On to `O=C(Nc1ccc2cnn(S(=O)(=O)c3cc(F)cc(C(F)(F)F)c3)c2c1)c1c(F)cccc1Cl` [Compound V-161], for which the IC50 (Table 8, indazoles) is less than 15 µM.

As to `COc1cccc(S(=O)(=O)n2ncc3ccc(NC(=O)Cc4ccc(F)cc4)cc32)c1` [Compound V-26], the IC50 (Table 8, indazoles) is less than 15 µM.

In the case of `CC(C)(C)c1cccc(S(=O)(=O)n2ncc3ccc(NC(=O)c4c(F)cccc4C(F)(F)F)cc32)c1` [Compound V-11], the IC50 (Table 8, indazoles) was less than 15 µM.

Where the note is “Table 8, indazoles”, `COc1cccc(S(=O)(=O)n2ncc3ccc(NC(=O)c4c(Cl)cccc4Cl)cc32)c1` [Compound V-73] had an IC50 of less than 15 µM.

Take `CC(=O)c1cccc(S(=O)(=O)n2ncc3ccc(NC(=O)Cc4ccc(F)c(F)c4)cc32)c1` [Compound V-19]: the IC50 (Table 8, indazoles) was less than 15 µM.

Under “benzoxazines, Table 9”, `C[C@@H](O)[C@H]1CN(S(=O)(=O)c2ccc(F)cc2)c2cc(NC(=O)c3c(Cl)cccc3C(F)(F)F)ccc2O1` [VI-22] showed an IC50 of less than 15 µM.

`COc1ccc(F)cc1S(=O)(=O)n1ncc2ccc(NC(=O)c3c(F)cccc3Cl)cc21` [Compound V-100] displayed an IC50 (Table 8, indazoles) of less than 15 µM.

Regarding `O=C(Nc1ccc2cnn(S(=O)(=O)c3cccc(OC(F)(F)F)c3)c2c1)c1c(Cl)cccc1Cl` [Compound V-74], the IC50 (Table 8, indazoles) is less than 15 µM.

Compound `N#CC[C@H]1CN(S(=O)(=O)c2ccc(F)cc2)c2cc(NC(=O)c3c(F)cccc3Cl)ccc2O1` [Compound 19, (S)-2-Chloro-N-(2-(cyanomethyl)-4-((4-fluorophenyl)sulfonyl)-3,4-dihydro-2H-benzo[b][1,4]oxazin-6-yl)-6-fluorobenzamide] gave an IC50 (benzoxazines, Table 9) of less than 15 µM.

For the setting “Table 8, indazoles”, `Cc1ccc(S(=O)(=O)n2ncc3ccc(NC(=O)c4c(F)cccc4Cl)cc32)c(F)c1` [Compound V-118] had an IC50 of less than 15 µM.

For the setting “Table 8, indazoles”, `O=C(Nc1ccc2cnn(S(=O)(=O)C3CC3c3ccccc3)c2c1)c1c(F)cccc1Cl` (stereo not shown) [Compound V-105] had an IC50 of less than 15 µM.

On to `CC(C)(C)c1cccc(S(=O)(=O)n2ncc3ccc(NC(=O)c4c(Cl)cccc4C(F)(F)F)cc32)c1` [Compound V-34], for which, for the setting “Table 8, indazoles”, the IC50 was less than 15 µM.

In the case of `COc1cccc(S(=O)(=O)n2ncc3ccc(NC(=O)c4c(F)cccc4C(F)(F)F)cc32)c1` [Compound V-49], the IC50 (Table 8, indazoles) is less than 15 µM.

As for `Cc1cccc(S(=O)(=O)n2ncc3ccc(NC(=O)c4c(Cl)cccc4Cl)cc32)c1` [Compound V-70], the IC50 (Table 8, indazoles) is less than 15 µM.

The values are drawn from US9512111B2, “N-sulfonylated tetrahydroquinolines and related bicyclic compounds for inhibition of RORγ activity and the treatment of disease” (Lycera Corporation, priority 2010, dated 2016).
